SMILES strings stand for the structures.

This is an account of results in ChEMBL document CHEMBL1133618, “Synthesis and structure-activity relationships of 7-substituted 3-(2, 6-dichlorophenyl)-1,6-naphthyridin-2(1H)-ones as selective inhibitors of pp60(c-src)” (J Med Chem, 2000).

Experiment [1] addresses Platelet-derived growth factor receptor beta (Mus musculus, UniProt P05622). The experiment is described as follows: Inhibitory activity against mouse PDGF beta receptor tyrosine kinase.
The subject of a further experiment is HT-29. Description: Inhibitory activity against HT-29 human colon adenocarcinoma cells was determined. The class given is functional, cell-based.
In a further experiment the test system is HCT-8. The experiment is described as follows: Inhibitory activity against HCT-8 human colon adenocarcinoma cells was determined. Type of experiment: functional, cell-based.
A further experiment concerns SW-620. Description: Inhibitory activity against SW-620 human colon adenocarcinoma cells was determined. Type of experiment: functional, cell-based.
For experiment [2], the target named is Fibroblast growth factor receptor 1 (Homo sapiens, UniProt P11362). The experiment is described as follows: Inhibitory activity against fibroblast growth factor receptor 1.
The target of experiment [3] is Proto-oncogene tyrosine-protein kinase Src (Gallus gallus) (UniProt P00523). Description: Inhibitory activity against avian c-Src tyrosine kinase was determined.

Sequence of Platelet-derived growth factor receptor beta (P05622 whole entry): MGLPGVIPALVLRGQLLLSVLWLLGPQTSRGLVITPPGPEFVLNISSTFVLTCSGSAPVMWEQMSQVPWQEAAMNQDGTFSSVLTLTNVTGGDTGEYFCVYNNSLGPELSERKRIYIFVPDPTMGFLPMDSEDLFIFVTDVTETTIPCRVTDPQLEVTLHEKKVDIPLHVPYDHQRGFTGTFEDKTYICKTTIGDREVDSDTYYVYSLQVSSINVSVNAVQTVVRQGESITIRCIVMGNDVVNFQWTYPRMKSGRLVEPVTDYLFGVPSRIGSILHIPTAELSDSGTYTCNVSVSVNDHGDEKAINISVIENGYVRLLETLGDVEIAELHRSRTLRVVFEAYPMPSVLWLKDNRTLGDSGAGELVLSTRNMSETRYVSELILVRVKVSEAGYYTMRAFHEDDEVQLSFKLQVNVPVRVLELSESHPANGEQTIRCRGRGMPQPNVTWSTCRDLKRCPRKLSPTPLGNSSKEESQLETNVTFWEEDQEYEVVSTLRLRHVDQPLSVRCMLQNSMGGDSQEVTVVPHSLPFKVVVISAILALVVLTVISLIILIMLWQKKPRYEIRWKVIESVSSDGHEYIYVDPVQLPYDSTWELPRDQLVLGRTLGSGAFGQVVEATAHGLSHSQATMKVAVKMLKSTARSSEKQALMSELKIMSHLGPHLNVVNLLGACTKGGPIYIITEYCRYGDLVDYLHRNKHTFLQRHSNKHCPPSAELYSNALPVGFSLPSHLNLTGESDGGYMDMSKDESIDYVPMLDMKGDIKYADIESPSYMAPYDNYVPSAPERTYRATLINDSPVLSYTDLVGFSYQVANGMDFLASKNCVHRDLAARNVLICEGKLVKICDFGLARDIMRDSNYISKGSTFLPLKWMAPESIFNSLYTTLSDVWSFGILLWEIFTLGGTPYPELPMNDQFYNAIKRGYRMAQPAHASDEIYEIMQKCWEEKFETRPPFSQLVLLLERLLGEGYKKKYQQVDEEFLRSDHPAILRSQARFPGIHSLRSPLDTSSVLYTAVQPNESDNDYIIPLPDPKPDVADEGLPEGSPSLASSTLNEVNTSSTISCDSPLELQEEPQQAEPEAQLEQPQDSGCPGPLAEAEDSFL
Sequence of Fibroblast growth factor receptor 1 (P11362 whole entry): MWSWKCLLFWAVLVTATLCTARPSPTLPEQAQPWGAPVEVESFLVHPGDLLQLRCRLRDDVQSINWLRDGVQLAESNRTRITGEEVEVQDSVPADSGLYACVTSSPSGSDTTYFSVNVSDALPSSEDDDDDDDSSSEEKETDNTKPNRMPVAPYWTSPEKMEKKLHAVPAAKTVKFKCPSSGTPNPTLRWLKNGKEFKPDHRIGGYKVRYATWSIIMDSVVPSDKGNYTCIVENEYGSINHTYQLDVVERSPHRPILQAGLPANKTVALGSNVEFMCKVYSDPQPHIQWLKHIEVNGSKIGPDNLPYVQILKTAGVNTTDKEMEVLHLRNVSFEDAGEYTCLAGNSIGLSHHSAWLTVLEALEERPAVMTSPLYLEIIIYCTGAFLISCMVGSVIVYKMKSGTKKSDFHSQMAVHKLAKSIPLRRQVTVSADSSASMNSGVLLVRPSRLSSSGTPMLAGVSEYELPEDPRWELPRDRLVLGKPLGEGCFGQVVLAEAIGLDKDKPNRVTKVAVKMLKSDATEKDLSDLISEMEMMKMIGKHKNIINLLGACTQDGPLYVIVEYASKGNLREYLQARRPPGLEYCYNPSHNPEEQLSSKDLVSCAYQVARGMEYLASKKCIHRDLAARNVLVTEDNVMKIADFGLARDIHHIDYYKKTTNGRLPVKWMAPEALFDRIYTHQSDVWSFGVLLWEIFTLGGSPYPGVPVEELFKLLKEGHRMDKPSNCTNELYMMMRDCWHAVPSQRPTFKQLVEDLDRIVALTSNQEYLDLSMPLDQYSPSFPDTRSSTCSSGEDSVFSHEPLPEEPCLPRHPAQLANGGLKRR

`CN1CCN(CCOc2ccc(Nc3cc4c(cn3)cc(-c3c(Cl)cccc3Cl)c(=O)n4C)cc2)CC1` showed an IC50 in experiment [1] of 0.26 µM.
For `CCN(CC)CCOc1ccc(Nc2cc3c(cn2)cc(-c2c(Cl)cccc2Cl)c(=O)n3C)cc1`, the IC50 in experiment [1] turned out to be 0.1 µM; with HT-29 it was 0.75 µM; with HCT-8, 2.8 µM; in the experiment with SW-620, 6.7 µM.
With `CCN(CC)CCOc1ccc(Nc2ncc3cc(-c4c(Cl)cccc4Cl)c(=O)n(C)c3n2)cc1` [PD-0166285], the IC50 turned out to be 0.28 µM in the experiment on HT-29, 0.42 µM in the experiment on HCT-8 and 0.27 µM with SW-620.
Take `Cn1c(=O)c(-c2c(Cl)cccc2Cl)cc2ccc(Nc3ccccc3)nc21`: the IC50 in experiment [1] and in experiment [2] was greater than 50 µM throughout.
In the case of `COc1ccc(Nc2ccc3cc(-c4c(Cl)cccc4Cl)c(=O)n(C)c3n2)cc1`, the IC50 in experiment [1] and in experiment [2] was greater than 50 µM throughout.
`COc1ccc(Nc2ncc3cc(-c4c(Cl)cccc4Cl)c(=O)n(C)c3n2)cc1`: in experiment [3], the IC50 turned out to be 0.02 µM.
For `Cn1c(=O)c(-c2c(Cl)cccc2Cl)cc2cnc(NCCCn3ccnc3)cc21`, the half-inhibitory concentration (IC50) in experiment [1] came out at 3.2 µM.
Take `CCN(CC)CCCCCNc1cc2c(cn1)cc(-c1c(Cl)cccc1Cl)c(=O)n2C`: the IC50 in experiment [1] came out at 0.74 µM; in experiment [2] it was 0.08 µM.
Consider `CCN(CC)CCNc1cc2c(cn1)cc(-c1c(Cl)cccc1Cl)c(=O)n2C`, for which the IC50 in experiment [1] is greater than 50 µM; in experiment [2], 33 µM.
In the case of `CCN(CC)CCOc1ccc(Nc2ccc3cc(-c4c(Cl)cccc4Cl)c(=O)n(C)c3n2)cc1`, the IC50 in experiment [1] and in experiment [2] was greater than 50 µM throughout.
Regarding `Cn1c(=O)c(-c2c(Cl)cccc2Cl)cc2cnc(Nc3ccc(N4CCOCC4)cc3)cc21`, the concentration for half-maximal inhibition (IC50) in experiment [1] amounted to 2.8 µM; in experiment [2], 8.7 µM.
Take `CN1CCN(CCCOc2ccc(Nc3cc4c(cn3)cc(-c3c(Cl)cccc3Cl)c(=O)n4C)cc2)CC1`: the IC50 in experiment [1] worked out at 0.9 µM. In other words, the sub-micromolar range.
Consider `CN(C)c1cc2c(cn1)cc(-c1c(Cl)cccc1Cl)c(=O)n2C`, for which the IC50 in experiment [1] and in experiment [2] was greater than 50 µM throughout.
As for `CCN(CC)CCCNc1cc2c(cn1)cc(-c1c(Cl)cccc1Cl)c(=O)n2C`, the IC50 in experiment [1] came out at 4.6 µM; in experiment [2] it was 0.15 µM.
In the case of `Cn1c(=O)c(-c2c(Cl)cccc2Cl)cc2cnc(Nc3ccccc3)cc21`, the values for the IC50 in experiment [1] and in experiment [2] were 1.4 µM and 2.2 µM, respectively.
As to `Cn1c(=O)c(-c2c(Cl)cccc2Cl)cc2cnc(N)nc21`, the IC50 in the experiment on SW-620 turned out to be 2.6 µM. This lies in the single-digit micromolar range.
With `CN1CCN(CCCCNc2ncc3cc(-c4c(Cl)cccc4Cl)c(=O)n(C)c3n2)CC1`, the IC50 in the experiment with HCT-8 and in the experiment with SW-620 was greater than 25 µM each time.
As for `CN1CCN(CCCNc2ccc3cc(-c4c(Cl)cccc4Cl)c(=O)n(C)c3n2)CC1`, the concentration for half-maximal inhibition (IC50) in experiment [1] and in experiment [2] was greater than 50 µM each time.
For `Cn1c(=O)c(-c2c(Cl)cccc2Cl)cc2cnc(N)cc21`, the IC50 in experiment [1] stood at 3.6 µM; in the experiment with HT-29, 1.9 µM; with HCT-8, 2.2 µM; in experiment [2] it was 0.38 µM.
In the case of `Cn1c(=O)c(-c2c(Cl)cccc2Cl)cc2cnc(Nc3ccncc3)cc21`, the IC50 in experiment [1] came out at 6.9 µM; with HT-29, 3.7 µM; with HCT-8, 7.3 µM; in experiment [2], 3.5 µM; in the experiment with SW-620, 8.7 µM.
For `Cn1c(=O)c(-c2c(Cl)cccc2Cl)cc2cnc(Nc3ccccc3)nc21`, the midpoint of inhibition in experiment [3], the IC50, lay at 0.02 µM. This lies in the double-digit nanomolar range.
On to `Cn1c(=O)c(-c2c(Cl)cccc2Cl)cc2cnc(Nc3ccncc3)nc21`, for which the IC50 is 0.01 µM in experiment [3], 0.14 µM in the experiment with HT-29 and 16 µM in the experiment with HCT-8.
Regarding `CCN(CC)CCCCNc1cc2nc(O)c(-c3c(Cl)cccc3Cl)cc2cn1`, the values for the IC50 in experiment [1] and in experiment [2] were 1.1 µM and 0.17 µM, respectively.
With `CCN(CC)CCNc1ncc2cc(-c3c(Cl)cccc3Cl)c(=O)n(C)c2n1`, the half-inhibitory concentration (IC50) in experiment [1] and in experiment [2] was greater than 50 µM in each case.
On to `Cn1c(=O)c(-c2c(Cl)cccc2Cl)cc2cnc(Nc3ccc(N4CCOCC4)cc3)nc21`, for which the IC50 in experiment [1] was found to be 0.64 µM; in the experiment with HT-29, 0.2 µM; in the experiment on HCT-8, 1.5 µM; in experiment [2], 0.1 µM; in the experiment on SW-620, 0.17 µM.
For `CCN(CC)CCCNc1ccc2cc(-c3c(Cl)cccc3Cl)c(=O)n(C)c2n1`, the IC50 in experiment [1] and in experiment [2] was greater than 50 µM throughout.
With `CCN(CC)C(=O)c1ccc(Nc2cc3c(cn2)cc(-c2c(Cl)cccc2Cl)c(=O)n3C)cc1`, the figures for the IC50 in experiment [1] and in experiment [2] were 16 µM and 1.9 µM, respectively.
Regarding `CCN(CC)C(=O)c1ccc(Nc2ncc3cc(-c4c(Cl)cccc4Cl)c(=O)n(C)c3n2)cc1`, the IC50 is 0.29 µM in experiment [1] and 0.18 µM in experiment [2].
For the compound `CN1CCN(CCCCNc2cc3c(cn2)cc(-c2c(Cl)cccc2Cl)c(=O)n3C)CC1`, the IC50 in experiment [1] stood at 1.1 µM; in the experiment on HT-29, 1.6 µM; in the experiment with HCT-8, 2.4 µM; in the experiment with SW-620, 2.6 µM.
Consider `CNc1cc2c(cn1)cc(-c1c(Cl)cccc1Cl)c(=O)n2C`, for which the IC50 in experiment [1] was 8 µM; with HT-29, 2.8 µM; in the experiment with HCT-8, 1.7 µM; in experiment [2], 0.21 µM.
`CN1CCN(CCCNc2cc3nc(O)c(-c4c(Cl)cccc4Cl)cc3cn2)CC1`: the figures for the IC50 in experiment [1] and in experiment [2] were 1.4 µM and 0.072 µM, respectively.
For `CCN(CC)CCCCNc1cc2c(cn1)cc(-c1c(Cl)cccc1Cl)c(=O)n2C`, in that order: 2.4 µM and 0.08 µM.
Consider `COc1ccc(Nc2cc3c(cn2)cc(-c2c(Cl)cccc2Cl)c(=O)n3C)cc1`, for which the IC50 in experiment [1] was determined as 6.8 µM; in experiment [2], 2.2 µM.
For `CCN(CC)CCCOc1ccc(Nc2cc3c(cn2)cc(-c2c(Cl)cccc2Cl)c(=O)n3C)cc1`, in that order: 0.36 µM and 0.25 µM.
In the same order, the values of `Cn1c(=O)c(-c2c(Cl)cccc2Cl)cc2ccc(N)nc21` are greater than 50 µM and greater than 50 µM.
For the compound `Cn1c(=O)c(-c2c(Cl)cccc2Cl)cc2cnc(NCCCN3CCOCC3)cc21`, the IC50 in experiment [1] was found to be 5.8 µM.
As to `CCN(CC)CCCOc1ccc(Nc2cc3nc(O)c(-c4c(Cl)cccc4Cl)cc3cn2)cc1`, the IC50 is 0.79 µM in experiment [1] and 0.44 µM in experiment [2].
Consider `CN1CCN(CCCNc2ncc3cc(-c4c(Cl)cccc4Cl)c(=O)n(C)c3n2)CC1`, for which the IC50 turned out to be 0.15 µM in experiment [3], 15 µM in the experiment on HT-29, 2.5 µM in the experiment with HCT-8 and 7.5 µM in the experiment on SW-620.
Turning to `CNc1ncc2cc(-c3c(Cl)cccc3Cl)c(=O)n(C)c2n1`, the IC50 turned out to be 0.75 µM in experiment [3], 4.1 µM in the experiment with HT-29, 7.8 µM in the experiment on HCT-8 and 5 µM with SW-620.
In experiment [3], `CN1CCN(CCCCCNc2ncc3cc(-c4c(Cl)cccc4Cl)c(=O)n(C)c3n2)CC1` gave an IC50 of 0.06 µM.
Take `CN1CCN(CCCNc2cc3c(cn2)cc(-c2c(Cl)cccc2Cl)c(=O)n3C)CC1`: the IC50 in experiment [1] was 2.8 µM; with HT-29 it was 2.2 µM; in the experiment with HCT-8, 2.8 µM; in experiment [2], 0.17 µM; with SW-620, 7.6 µM.
In the case of `CN1CCN(c2ccc(Nc3ncc4cc(-c5c(Cl)cccc5Cl)c(=O)n(C)c4n3)cc2)CC1`, the IC50 in the experiment with HT-29 was determined as 0.24 µM; in the experiment on HCT-8 it was 0.24 µM; in the experiment on SW-620, 0.12 µM.
Take `CN1CCN(c2ccc(Nc3cc4c(cn3)cc(-c3c(Cl)cccc3Cl)c(=O)n4C)cc2)CC1`: the IC50 in the experiment on HT-29 worked out at 0.83 µM; in the experiment on HCT-8 it was 2.1 µM; in the experiment on SW-620, 4.3 µM.
Turning to `CN1CCN(CCCCCNc2cc3c(cn2)cc(-c2c(Cl)cccc2Cl)c(=O)n3C)CC1`, half-maximal inhibition in experiment [1] (IC50) required 9.9 µM.

For orientation: IC50 means the concentration at which inhibition is half-maximal.
